SMILES strings stand for the structures. Where two headings read alike, the source gives them in different places.

In assay [1] the test system is Mycobacterium avium subsp. paratuberculosis CIT03. The experiment in a line: In vitro antimycobacterial evaluation (MIC/IC90, alamarBlue). The class given is cell-based. Conditions: for MIC: Mycobacterium avium. How it is done: The MIC/IC90 value is routinely and widely used in bacterial assays and is a standard detection limit according to the Clinical and Laboratory Standards Institute.
A well-characterized clinical isolate of Mycobacterium avium subsp. paratuberculosis (CIT03) was grown in Middlebrook broth (MB), supplemented with Oleic-Albumin-Dextrose-Catalase supplement (OADC, Becton, Dickinson and Comp., Franklin Lakes, NJ, USA) and mycobactin J (2 µg/mL). Identification of this isolate was performed using biochemical and molecular protocols. At log phase growth, a culture sample (10 mL) was centrifuged at 15,000 rpm/20 min using a bench top centrifuge (Model CR 4-12, Jouan Inc., Winchester, VA, USA). Following removal of the supernatant, the pellet was washed in fresh Middlebrook 7H9GC broth and re-suspended in fresh supplemented MB (10 mL). The turbidity was adjusted to match McFarland standard No. 1 (3 × 10^8 cfu) with MB broth. A further 1:20 dilution of the culture was then performed in MB broth. The antimicrobial susceptibility of the mycobacterial species was investigated in a 96-well plate format. In these experiments, sterile deionized water (300 µL) was added to all outer-perimeter wells of the plates to minimize evaporation of the medium in the test wells during incubation. Each evaluated compound (100 µL) was incubated with the mycobacterial species (100 µL). Dilutions of each compound were prepared in duplicate. For all synthesized compounds, final concentrations ranged from 1,000 µg/mL to 8 µg/mL. All compounds were prepared in DMSO and subsequent dilutions were made in supplemented MB. The plates were sealed with parafilm and incubated at 37 °C for 11 days.
Following incubation, a 10% addition of alamarBlue (AbD Serotec, Kidlington, UK) was mixed into each well and readings at 570 nm and 600 nm were taken, initially for background subtraction and subsequently after 24 h re-incubation. […] For non-interfering compounds, a blue colour in the well was interpreted as an absence of growth and a pink colour was scored as growth. Furthermore percent reduction of alamarBlue was calculated to generate quantitative data on cell viability during exposure to antimycobacterial compounds over a period of 5 days. The formula used to determine percent reduction of alamarBlue has been standardized for colorimetric analysis by Abd Serotec.
The MIC value is routinely and widely used in bacterial assays and is a standard detection limit according to the Clinical and Laboratory Standards Institute.
(Alamar Blue is a resazurin reagent that responds to reducing activity.)

Assay [2] deals with M. avium subsp. paratuberculosis. The experiment in a line: MTT assay on mycobacteria. The class given is cell-based, Mycobacterium avium subsp. paratuberculosis. Conditions: lowest tested concentration 8 µg/mL (ca. 30 µmol/L), four hours of incubation. How it is done:
Additionally, a standard MTT assay was performed on these same compounds. The MTT assay is a well-characterized method of assessing cell growth through measurement of respiration.
For the MTT assay, the same 96-well plate set up and incubation conditions listed above were used. After the incubation period, a 10% addition of MTT reagent was mixed into each well and incubated at 37 °C for 4 h. The reagent and media were then aspirated from the wells to which 50 µL DMSO was then added and plates were read at 550 nm.

Setting [3] is: M. avium subsp. paratuberculosis, comparison of MICs.

For `Cc1ccc(NC(=O)c2cccc3ccccc23)cc1` [Compound 3c, N-(4-Methylphenyl)naphthalene-1-carboxamide], in assay [1] (setting [3]), the “antimycobacterial activity relative to ciprofloxacin” value is given as “three-fold higher”. For the same compound, the “antimycobacterial activity relative to rifampicin” value in assay [1] (setting [3]) was “two-fold higher”. Also, the MIC was 57 µM in assay [1] (264 h, clinical isolate CIT03, 11 days at 37 °C, alamarBlue, MIC = 90% or greater reduction of growth, read-out: MAP MIC/IC90) and 15 µg/mL in assay [1] (clinical isolate CIT03, read-out: MIC). The “MAP MIC/IC90” value in assay [1] (clinical isolate CIT03, 11 days at 37 °C, alamarBlue, MIC = 90% or greater reduction of growth) came to 57 µM. Moreover, the “reduction in activity (MTT)” value in assay [2] is given as “more than 80%”.

Values taken from PMC6270837, “Preparation and Biological Properties of Ring-Substituted Naphthalene-1-Carboxanilides” (Molecules, 2014).
